CC1(C)OC(=O)Nc2sc(-c3cccc(Cl)c3)cc21 [Example 1, 6-(3-chlorophenyl)-1,4-dihydro-4,4-dimethyl-2H-thieno[2,3-d][1,3]oxazine-2-one]
melting point: 149 to 150 °C

CC1(C)OC(=O)Nc2cc(-c3cccc(Cl)c3)sc21 [Example 2, 6-(3-chlorophenyl)-1,4-dihydro-4,4-dimethyl-2H-thieno[3,2-d][1,3]oxazine-2-one]
melting point: 123 to 125 °C

Reference: patent publication US6380178B1, “Cyclic regimens using cyclocarbamate and cyclic amide derivatives” (American Home Products Corporation, priority 1999, dated 2002)
